This note sets out measurements from patent US8304448B2, “Method for the treatment of metabolic disorder containing benzazole derivatives as an active ingredient” (Korea Research Institute of Bioscience and Biotechnology, priority 2006, dated 2012).

The test system of data set [1] is DGAT. In words: Assay for inhibitory activity against DGAT ([14C]triacylglycerol formation, rat microsomal protein). The class given is biochemical. As to conditions: 25 μM; rat microsomal protein as enzyme source. From the text:
The derivatives of Chemical Formula 1 in accordance with the present invention are found to inhibit the enzymatic activity of DGAT at a dose-dependent manner (refer to Table 2 and FIG. 1) as measured in a test in which [^14C]triacylglycerol was quantitatively analyzed after enzymatic reaction between 1,2-diacylglycerol and [^14C]palmitoyl-CoA, with microsomal proteins from rats serving as an enzyme source (refer to Example 1).
After enzymatic reaction between two substrates 1,2-diacylglycerol (Sigma, D0138) and [^14C]palmitoyl-CoA (Amersham, CFA583) with the microsomal protein of rat serving as an enzyme source in accordance with Coleman et al, Methods Enzymol., 98-103, 1992, the resulting product [^14C] triacylglycerol was measured for radioactivity. In detail, to a reaction buffer (175 mM Tris-HCl, pH 8.0, 20 μl bovine serum albumin (10 mg/ml), 100 mM MgCl2, 30 μM [^14C] palmitoyl-CoA (0.02 μCi, Amersham) and 200 μM 1,2-dioleoyl glycerol) was added 10 μl of a solution of the samples in dimethylsulfoxide (DMSO) and then 100˜200 μl of an isolated microsomal protein, followed by reaction at 25° C. for 10 min. The reaction was terminated with 1.5 ml of a mixture of 80:20:2 2-propanol:heptane:water (v:v:v). Thereafter, the [^14C] triacylglycerol thus formed was separated. In this regard, 1 ml of heptane and 0.5 ml of distilled water were added to the reaction mixture, which was then shaken. 1 ml of the supernatant thus formed was mixed with 2 ml of an alkaline ethanol solution (ethanol:0.5 N sodium hydroxide:water=50:10:40, v:v:v), followed by shaking. After being taken, 0.65 ml of the supernatant thus formed was measured for radioactivity using an LSC (liquid scintillation counter). The inhibitory activity against DGAT was calculated according to the following Mathematical Formula 1. The inhibitory effects of the benzazole derivatives on DGAT are summarized in Table 2, below while % DGAT inhibition is plotted against doses of compound 22 and 31 in FIG. 1.
T: Cpm of a test group in which a sample was added to an enzymatic buffer,
C: Cpm of a control in which no samples were added to an enzymatic buffer,
B: Cpm of a control in which a sample was added in the absence of any enzyme source.

The subject of data set [2] is DGAT. In words: Assay for inhibitory effect on DGAT in cell (intracellular triglyceride production from [14C]acetate in HepG2 cells). The class given is cell-based, human. The following applies: final level 10 μM, DMSO control given as 100. The method, then:
The effect of the benzazole derivatives of Chemical Formula 1 in accordance with the present invention on DGAT was examined with HepG2 cells, hepatic cells derived from the human liver, as follows.
HepG2 cells, purchased from ATCC, were cultured in Eagle's minimum essential medium (MEM), 2 mM L-glutamine, with Earle's balanced salt solution (BSS) adjusted to contain, 1.5 g/L sodium bicarbonate, 0.1 mM non-essential amino acids and 1 mM sodium pyruvate, supplemented with 10% fetal bovine serum (FBS) and 1% antibiotics (100 U/ml penicillin and 100 µg/ml streptomycin) at 37° C. in a 5% CO2 incubator.
Intracellular DGAT activity was represented by the amount of triglycerides produced in the cultured HepG2 cells while the compounds (4, 8, 10, 22, 24, 25, 26, 39 and 31) of Chemical Formula 1 were assayed for inhibitory activity against DGAT by measuring the change in intracellular triglyceride production after the addition thereof.
Cells were plated at a density of 1×10^6 cell/ml per well into 24-well plates and incubated for 24 hours. Then, the medium was exchanged with FBS-free MEM and pre-treated with samples for 1 hour. Thereafter, 0.2 mCi of [^14C]acetate (Amersham) was added as a substrate to the cells, followed by incubation for 1 hour. The production of triglyceride was catalyzed by DGAT so that DGAT activity was determined by the amount of the triglyceride product, which could be measured by radioactivity. For use, the samples were dissolved in dimethyl sulfoxide (DMSO). In a control, triglycerides were synthesized using DMSO without any sample, with the production yield thereof given as 100.
The amount of the glyceride products synthesized was determined as follows. After completion of synthesis, the cells were suspended in PBS (phosphate-buffer-saline) to remove the substrate [^14C]acetate, whether unabsorbed into the cells or remaining unreacted, and total lipids, including triglycerides, were extracted twice for 30 min with 0.5 ml of an extraction solvent mixture (hexane:isopropanol=3:2, v:v). 1 ml of the extract was concentrated with nitrogen gas.
The total lipid residue thus formed was dissolved in an organic solvent mixture (chloroform:methanol=2:1) and loaded dropwise onto a thin layer chromatography plate (TLC; silica gel 60F254, 0.5 mm, Merck) using a mixture of 80:20:1 hexane:diethylether:acetic acid (v:v:v) as a developing solvent. After the separation of triglycerides (Rf value: 0.4) on TLC, the plate was brought into contact with an autoradiographic film for three hours, followed by image analysis (BAS-1500, Fuji Photo Film Co. Ltd.) to determine the [^14C] radioactivity of the triglycerides. The cells left after the extraction were suspended in 0.3 ml of a 0.1 N sodium hydroxide solution to measure the cellular protein concentration thereof.
The empirical values were obtained by dividing triglyceride radioactivity by protein level, with correction for experimental errors between test groups.

The next data set relates to SPF ICR mice. In words: Acute toxicity, single oral dose of 2,000 mg/kg, mice. The class given is in vivo. The method, then:
In addition, the compounds of the present invention were orally administered once at a dose of as high as 2,000 mg/kg into mice. In this regard, 7-week-old male SPF ICR mice (Dae Han Biolink Co. Ltd.) were acclimated to a new environment for one week and they, thus 8 weeks old, were divided into two groups of three. The test group was orally administered once with a dose of 2 g/kg of Compound 10 in a 0.5% CMC solution, while the control was administered with a 0.5% CMC (carboxymethyl cellulose) solution alone. They were monitored for death, clinical signs, change in body weight and the like for a couple of weeks. Autopsies were performed to examine the abnormality of organs.
Therefore, the compounds of the present invention exert no oral acute toxicity on mice even when administered once at a dose of up to 2,000 mg/kg.

Regarding `NS(=O)(=O)c1ccc2oc(COc3ccc(Cl)cc3Cl)nc2c1` [Cpd. 10, 2-(2,4-dichloro-phenoxymethyl)-benzoxazole-5-sulfonic acid amide], the “DGAT (% inhibition in 25 μM)” value in the data set on DGAT [1] is recorded as 17.43%. In addition, the “Production Yield of Triglyceride (%)” value with DGAT [2] is reported as 98.7 ± 6.3%. For the same compound, in the data set on SPF ICR mice (single oral 2 g/kg in 0.5% CMC, No. of Dead/No of Tested), the Mortality is 0/3. The “Body Weight (g) Day 0” value in the data set on SPF ICR mice (single oral 2 g/kg, Day 0, Mean ± SD) amounted to 35 ± 0.5 g. Further, the “Body Weight (g) Day 1” value in the data set on SPF ICR mice (single oral 2 g/kg, Day 1, Mean ± SD) is reported as 37 ± 0.5 g. In the data set with SPF ICR mice (single oral 2 g/kg, Day 3, Mean ± SD), the “Body Weight (g) Day 3” value turned out to be 37 ± 0.6 g. The “Body Weight (g) Day 7” value in the data set on SPF ICR mice (single oral 2 g/kg, Day 7, Mean ± SD) was found to be 39 ± 1.6 g. The “Body Weight (g) Day 14” value in the data set on SPF ICR mice (single oral 2 g/kg, Day 14, Mean ± SD) was 42 ± 0.8 g.
